Molecules are shown by their SMILES.

Data set [1] is described as follows: stability of solutions as a function of pH. It counts as physicochemical. Conditions: below a pH of 6. The text has this:
As is discussed above the pH range for CHT and CH-BENZ solutions for use in this invention can be from about 6- 14. […] While the solutions of this invention are effective above a pH of 10.0, solutions having a pH of 10.0 can only be used for industrial applications, due to their caustic nature.
This stability is important in domestic applications of this invention where long shelf life is very desirable.

Data set [2] is described as follows: limit of solubility in water. Conditions: at room temperature in water.

For `O=C([O-])c1ccc(S(=O)(=O)NCl)cc1.[Na+]` [CH-BENZ, N-Chloro-4-Carboxybenzenesulfonamide sodium salt], in data set [1], the “stability in acidic medium” value is given as “tend to decompose”. The limit of solubility entry in data set [2] is on record as “about 20%”.

For `Cc1ccc(S(=O)(=O)[N-]Cl)cc1.[Na+]` [CHT, Chloramine-T], in data set [1], the “stability in acidic medium” value is recorded as “tend to decompose”. In addition, the limit of solubility entry in data set [2] is recorded as “about 15%”.
